In brackets after ≈: the same amount, converted by molar mass.
What was measured:
S. aureus A798 = assay: MIC by broth microdilution (NCCLS), S. aureus A798; format: cell-based, Staphylococcus aureus; conditions: strain A798, cation-adjusted Mueller-Hinton Broth, pH 7.2-7.3; for MIC: Staphylococcus aureus
Procedure: (§1) These assays have been performed following the description given in “Methods for dilution Antimicrobial Susceptibility Tests for Bacteria that Grow Aerobically, 4th ed.; Approved standard: NCCLS Document M7-A4; National Committee for Clinical Laboratory Standards: Villanova, Pa., USA, 1997”. Minimal inhibitory concentrations (MICs; mg/l) were determined in cation-adjusted Mueller-Hinton Broth (BBL) by a microdilution method following NCCLS guidelines (National Committee for Clinical Laboratory Standards. Methods for Dilution Antimicrobial Susceptibility). The pH of the test medium was 7.2-7.3.

P. aeruginosa A1124 = assay: MIC by broth microdilution (NCCLS), P. aeruginosa A1124; format: cell-based, Pseudomonas aeruginosa; conditions: strain A1124, cation-adjusted Mueller-Hinton Broth, pH 7.2-7.3; for MIC: Pseudomonas aeruginosa
Procedure: as §1

A. baumanii T6474 = assay: MIC by broth microdilution (NCCLS), A. baumanii T6474; format: cell-based, Acetinobacter baumannii; conditions: strain T6474, cation-adjusted Mueller-Hinton Broth, pH 7.2-7.3; for MIC: Acinetobacter baumannii
Procedure: as §1

Row | Structure (SMILES) | MIC (S. aureus A798; second table, all Examples) [µg/mL] | MIC S. aureus A798 (S. aureus A798; second table, all Examples) [µg/mL] | other results
1 | COc1ccc2nccc(CC(N)[C@H]3CC[C@H](NCC=Cc4cc(F)ccc4F)CC3)c2n1 (mixture of isomers) [Example 4, trans-{4-[(1RS)-1-amino-2-(6-methoxy-[1,5]naphthyridin-4-yl)-ethyl]-cyclohexyl}-[3-(2,5-difluoro-phenyl)-allyl]-amine] | 0.063 (≈ 0.139 µM) |  | 
2 | COC(=O)c1ccc(CC(N)[C@H]2CC[C@H](NC/C=C/c3cc(F)ccc3F)CC2)c2nc(OC)ccc12 (mixture of isomers) [Example 5, 8-[(2RS)-2-amino-2-trans-{4-[(E)-3-(2,5-difluoro-phenyl)-allylamino]-cyclohexyl}-ethyl]-2-methoxy-quinoline-5-carboxylic acid methyl ester] |  | 0.125 (≈ 0.245 µM) | 
3 | COc1ccc2c(CO)ccc(CC(N)[C@H]3CC[C@H](NC/C=C/c4cc(F)ccc4F)CC3)c2n1 (mixture of isomers) [Example 6, [8-((2RS)-2-amino-2-trans-{4-[3-(E)-(2,5-difluoro-phenyl)-allylamino]-cyclohexyl}-ethyl)-2-methoxy-quinolin-5-yl]-methanol] |  | 0.125 (≈ 0.26 µM) | MIC S. aureus A798 (S. aureus A798; table of typical results): 0.125 µg/mL (≈ 0.26 µM); MIC P. aeruginosa A1124 (P. aeruginosa A1124): 0.5 µg/mL (≈ 1.04 µM); MIC A. baumanii T6474 (A. baumanii T6474): 16 µg/mL (≈ 33.2 µM)
4 | COc1ccc2ncc(F)c(CC(N)[C@H]3CC[C@H](NCc4ccc5c(n4)NC(=O)CS5)CC3)c2c1 (mixture of isomers) [Example 10, trans-6-({4-[(1RS)-1-amino-2-(3-fluoro-6-methoxy-quinolin-4-yl)-ethyl]-cyclohexylamino}-methyl)-4H-pyrido[3,2-b][1,4]thiazin-3-one] | 0.031 (≈ 0.0625 µM) |  | 
5 | COc1ccc2ncc(F)c(CC(N)[C@H]3CC[C@@H](NCc4ccc5c(n4)NC(=O)CS5)CC3)c2c1 (mixture of isomers) [Example 11, cis-6-({4-[(1RS)-1-amino-2-(3-fluoro-6-methoxy-quinolin-4-yl)-ethyl]-cyclohexylamino}-methyl)-4H-pyrido[3,2-b][1,4]thiazin-3-one] |  | 0.5 (≈ 1.01 µM) | MIC (S. aureus A798; table of typical results): 0.5 µg/mL (≈ 1.01 µM); MIC (P. aeruginosa A1124): 0.125 µg/mL (≈ 0.252 µM); MIC (A. baumanii T6474): 4 µg/mL (≈ 8.07 µM)
6 | COc1ccc2ncc(F)c(CC(N)[C@H]3CC[C@H](NC/C=C/c4cc(F)ccc4F)CC3)c2c1 (mixture of isomers) [Example 12, trans-{4-[(1RS)-1-amino-2-(3-fluoro-6-methoxy-quinolin-4-yl)-ethyl]-cyclohexyl}-[3-(E)-(2,5-difluoro-phenyl)-allyl]-amine] | ≤ 0.031 |  | 
7 | COc1ccc2ncc(F)c(CC(N)[C@H]3CC[C@@H](NC/C=C/c4cc(F)ccc4F)CC3)c2c1 (mixture of isomers) [Example 13, cis-{4-[(1RS)-1-amino-2-(3-fluoro-6-methoxy-quinolin-4-yl)-ethyl]-cyclohexyl}-[3-(E)-(2,5-difluoro-phenyl)-allyl]-amine] | 0.063 (≈ 0.134 µM) |  | 
8 | COc1ccc2ncc(F)c(CC(N)[C@H]3CC[C@H](NCc4ccc5c(c4)NC(=O)CO5)CC3)c2c1 (mixture of isomers) [Example 16, trans-6-({4-[(1RS)-1-amino-2-(3-fluoro-6-methoxy-quinolin-4-yl)-ethyl]-cyclohexylamino}-methyl)-4H-benzo[1,4]oxazin-3-one] | 0.063 (≈ 0.132 µM) |  | 
9 | COc1ccc2nccc(CC(N)[C@H]3CC[C@H](NCc4ccc5c(c4)NC(=O)CO5)CC3)c2c1 (mixture of isomers) [Example 19, trans-6-({4-[(1RS)-1-amino-2-(6-methoxy-quinolin-4-yl)-ethyl]-cyclohexylamino}-methyl)-4H-benzo[1,4]oxazin-3-one] | 1 (≈ 2.17 µM) |  | 
10 | COc1ccc2nccc(CC(N)[C@H]3CC[C@H](NCc4ccc5c(n4)NC(=O)CO5)CC3)c2c1 (mixture of isomers) [Example 21, trans-6-({4-[(1RS)-amino-2-(6-methoxy-quinolin-4-yl)-ethyl]-cyclohexylamino}-methyl)-4H-pyrido[3,2-b][1,4]oxazin-3-one] |  | 0.5 (≈ 1.08 µM) | 
11 | COc1ccc2nccc([C@@H](O)[C@H](N)[C@H]3CC[C@H](NCc4ccc5c(c4)OCCO5)CC3)c2n1 (relative stereo) [Example 17, trans-(1R*,2R*)-2-amino-2-{4-[(2,3-dihydro-benzo[1,4]dioxin-6-ylmethyl)-amino]-cyclohexyl}-1-(6-methoxy-[1,5]naphthyridin-4-yl)-ethanol] |  | 0.063 (≈ 0.136 µM) | MIC (S. aureus A798; table of typical results): 0.063 µg/mL (≈ 0.136 µM); MIC (P. aeruginosa A1124): 2 µg/mL (≈ 4.31 µM); MIC (A. baumanii T6474): 16 µg/mL (≈ 34.4 µM)
12 | COc1ccc2nccc([C@@H](O)[C@H](N)[C@H]3CC[C@H](NC/C=C/c4cc(F)ccc4F)CC3)c2n1 (relative stereo) [Example 18, trans-(1R*,2R*)-2-amino-2-{4-[(E)-3-(2,5-difluoro-phenyl)-allylamino]-cyclohexyl}-1-(6-methoxy-[1,5]naphthyridin-4-yl)-ethanol] | ≤ 0.031 |  | 

Further lines, with some results ahead:

Row | MIC (S. aureus A798; second table, all Examples) [µg/mL] | MIC S. aureus A798 (S. aureus A798; second table, all Examples) [µg/mL] | Structure (SMILES) | other results
13 | 0.063 (≈ 0.132 µM) |  | COc1cnc2cccc(CC(N)[C@H]3CC[C@H](NCc4ccc5c(n4)NC(=O)CS5)CC3)c2n1 (mixture of isomers) [Example 7, 6-(trans-{4-[(1RS)-1-amino-2-(3-methoxy-quinoxalin-5-yl)-ethyl]-cyclohexylamino}-methyl)-4H-pyrido[3,2-b][1,4]thiazin-3-one] | 
14 | 1 (≈ 2.09 µM) |  | COc1cnc2cccc(CC(N)[C@H]3CC[C@@H](NCc4ccc5c(n4)NC(=O)CS5)CC3)c2n1 (mixture of isomers) [Example 8, 6-(cis-{4-[(1RS)-1-amino-2-(3-methoxy-quinoxalin-5-yl)-ethyl]-cyclohexylamino}-methyl)-4H-pyrido[3,2-b][1,4]thiazin-3-one] | 
15 | 0.5 (≈ 1.08 µM) |  | COc1ccc2nccc(CC(N)[C@H]3CC[C@H](NCc4ccc5c(n4)NC(=O)CO5)CC3)c2n1 (mixture of isomers) [Example 9, 6-(trans-{4-[(1RS)-1-amino-2-(6-methoxy-[1,5]naphthyridin-4-yl)-ethyl]-cyclohexylamino}-methyl)-4H-pyrido[3,2-b][1,4]oxazin-3-one] | 
16 | ≤ 0.031 |  | COc1ccc2ncc(F)c(CC(N)[C@H]3CC[C@H](NCc4ccc5c(n4)NC(=O)CS5)CC3)c2n1 (mixture of isomers) [Example 14, trans-6-({4-[(1RS)-1-amino-2-(3-fluoro-6-methoxy-[1,5]naphthyridin-4-yl)-ethyl]-cyclohexylamino}-methyl)-4H-pyrido[3,2-b][1,4]thiazin-3-one] | 
17 | 0.25 (≈ 0.503 µM) |  | COc1ccc2ncc(F)c(CC(N)[C@H]3CC[C@@H](NCc4ccc5c(n4)NC(=O)CS5)CC3)c2n1 (mixture of isomers) [Example 15, cis-6-({4-[(1RS)-1-amino-2-(3-fluoro-6-methoxy-[1,5]naphthyridin-4-yl)-ethyl]-cyclohexylamino}-methyl)-4H-pyrido[3,2-b][1,4]thiazin-3-one] | 
18 |  | 0.125 (≈ 0.262 µM) | COc1ccc2nccc(CC(N)[C@H]3CC[C@H](NCc4ccc5c(n4)NC(=O)CS5)CC3)c2c1 (mixture of isomers) [Example 20, trans-6-({4-[(1RS)-amino-2-(6-methoxy-quinolin-4-yl)-ethyl]-cyclohexylamino}-methyl)-4H-pyrido[3,2-b][1,4]thiazin-3-one] | 
19 | 0.125 (≈ 0.253 µM) |  | COc1ccc2nccc([C@@H](O)[C@H](N)[C@H]3CC[C@H](NCc4ccc5c(n4)NC(=O)CS5)CC3)c2n1 (relative stereo) [Example 3, 6-(trans-{4-[(1R*,2R*)-1-amino-2-hydroxy-2-(6-methoxy-[1,5]naphthyridin-4-yl)-ethyl]-cyclohexylamino}-methyl)-4H-pyrido[3,2-b][1,4]thiazin-3-one] | 
20 |  | 4 (≈ 8.36 µM) | COc1ccc2nccc(C[C@@H](N)[C@H]3CC[C@H](NCc4ccc5c(n4)NC(=O)CS5)CC3)c2n1 [Example 1, 6-(trans-{4-[(1R)-1-amino-2-(6-methoxy-[1,5]naphthyridin-4-yl)-ethyl]-cyclohexylamino}-methyl)-4H-pyrido[3,2-b][1,4]thiazin-3-one] | MIC (S. aureus A798; table of typical results): 4 µg/mL (≈ 8.36 µM); MIC (P. aeruginosa A1124): 0.063 µg/mL (≈ 0.132 µM); MIC (A. baumanii T6474): 32 µg/mL (≈ 66.9 µM)
21 | 0.125 (≈ 0.261 µM) |  | COc1ccc2nccc(C[C@H](N)[C@H]3CC[C@H](NCc4ccc5c(n4)NC(=O)CS5)CC3)c2n1 [Example 2, 6-(trans-{4-[(1S)-1-amino-2-(6-methoxy-[1,5]naphthyridin-4-yl)-ethyl]-cyclohexylamino}-methyl)-4H-pyrido[3,2-b][1,4]thiazin-3-one] | 

Reference: patent publication US8044044B2, “4-(1-amino-ethyl)-cyclohexylamine derivatives” (Actelion Pharmaceutical Ltd., priority 2006, dated 2011)
